Assays:
Experiment in all cases: relative viability (nuclei count vs DMSO), 5 days (fraction); higher = more cells survive
Entinostat + Phenformin = compound: Nc1ccccc1NC(=O)c1ccc(CNC(=O)OCc2cccnc2)cc1 [Entinostat] + N=C(N)NC(=N)NCCc1ccccc1 [Phenformin] (partner 250 µM)
Outline: (§1)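 Lung cancer cell lines in 1536-well plates got either a single drug or a fixed anchor-drug dose together with five library-drug doses (not always all listed) in √10 steps, by pin tool, on the day after seeding. Nuclei were counted after 5 days, and relative viability is the treated-to-vehicle ratio of nuclei counts. Values are medians of duplicate plates.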

[1] = compound: C1COCCN1C2=NC(=NC3=C2OC4=C3C=CC=N4)C5=CC(=CC=C5)NC(=O)C6=CN=C(C=C6)N + CC(=O)Nc1cccc(-n2c(=O)n(C3CC3)c(=O)c3c(Nc4ccc(I)cc4F)n(C)c(=O)c(C)c32)c1 [Trametinib] (partner 0.02 µM)
Outline: as §1

Entinostat + Olaparib = compound: Nc1ccccc1NC(=O)c1ccc(CNC(=O)OCc2cccnc2)cc1 [Entinostat] + O=C(c1cc(Cc2n[nH]c(=O)c3ccccc23)ccc1F)N1CCN(C(=O)C2CC2)CC1 [Olaparib] (partner 8 µM)
Outline: as §1

Entinostat + Navitoclax = compound: Nc1ccccc1NC(=O)c1ccc(CNC(=O)OCc2cccnc2)cc1 [Entinostat] + CC1(C)CCC(c2ccc(Cl)cc2)=C(CN2CCN(c3ccc(C(=O)NS(=O)(=O)c4ccc(N[C@H](CCN5CCOCC5)CSc5ccccc5)c(S(=O)(=O)C(F)(F)F)c4)cc3)CC2)C1 [Navitoclax] (partner 0.5 µM)
Outline: as §1

NCI-H1666
relative viability (Entinostat + Phenformin; first compound 0.02 µM): 0.56
relative viability (Entinostat + Phenformin; first compound 0.06325 µM): 0.609
relative viability (Entinostat + Phenformin; first compound 0.2 µM): 0.581
relative viability (Entinostat + Phenformin; first compound 0.6325 µM): 0.497
relative viability (Entinostat + Phenformin; first compound 2 µM): 0.443
relative viability ([1]; first compound 0.02 µM): 1.04
relative viability ([1]; first compound 0.06325 µM): 0.865
relative viability ([1]; first compound 0.2 µM): 0.753
relative viability ([1]; first compound 0.6325 µM): 0.751
relative viability ([1]; first compound 2 µM): 0.694
relative viability (Entinostat + Olaparib; first compound 0.02 µM): 0.81
relative viability (Entinostat + Olaparib; first compound 0.06325 µM): 0.759
relative viability (Entinostat + Olaparib; first compound 0.2 µM): 0.723
relative viability (Entinostat + Olaparib; first compound 0.6325 µM): 0.669
relative viability (Entinostat + Olaparib; first compound 2 µM): 0.539
relative viability (Entinostat + Navitoclax; first compound 0.02 µM): 1.13
relative viability (Entinostat + Navitoclax; first compound 0.06325 µM): 1.09
relative viability (Entinostat + Navitoclax; first compound 0.2 µM): 0.861
relative viability (Entinostat + Navitoclax; first compound 0.6325 µM): 0.463
relative viability (Entinostat + Navitoclax; first compound 2 µM): 0.277

NCI-H1734
relative viability (Entinostat + Phenformin; first compound 0.02 µM): 0.439
relative viability (Entinostat + Phenformin; first compound 0.06325 µM): 0.509
relative viability (Entinostat + Phenformin; first compound 0.2 µM): 0.488
relative viability (Entinostat + Phenformin; first compound 0.6325 µM): 0.342
relative viability (Entinostat + Phenformin; first compound 2 µM): 0.315
relative viability ([1]; first compound 0.02 µM): 0.657
relative viability ([1]; first compound 0.06325 µM): 0.816
relative viability ([1]; first compound 0.2 µM): 0.67
relative viability ([1]; first compound 0.6325 µM): 0.635
relative viability ([1]; first compound 2 µM): 0.512
relative viability (Entinostat + Olaparib; first compound 0.02 µM): 0.0279
relative viability (Entinostat + Olaparib; first compound 0.06325 µM): 0.637
relative viability (Entinostat + Olaparib; first compound 0.2 µM): 0.621
relative viability (Entinostat + Olaparib; first compound 0.6325 µM): 0.563
relative viability (Entinostat + Olaparib; first compound 2 µM): 0.356
relative viability (Entinostat + Navitoclax; first compound 0.02 µM): 0.87
relative viability (Entinostat + Navitoclax; first compound 0.06325 µM): 0.874
relative viability (Entinostat + Navitoclax; first compound 0.2 µM): 0.86
relative viability (Entinostat + Navitoclax; first compound 0.6325 µM): 0.701
relative viability (Entinostat + Navitoclax; first compound 2 µM): 0.412

NCI-H1755
relative viability (Entinostat + Phenformin; first compound 0.02 µM): 0.605
relative viability (Entinostat + Phenformin; first compound 0.06325 µM): 0.613
relative viability (Entinostat + Phenformin; first compound 0.2 µM): 0.569
relative viability (Entinostat + Phenformin; first compound 0.6325 µM): 0.513
relative viability (Entinostat + Phenformin; first compound 2 µM): 0.349
relative viability ([1]; first compound 0.02 µM): 0.741
relative viability ([1]; first compound 0.06325 µM): 0.827
relative viability ([1]; first compound 0.2 µM): 0.741
relative viability ([1]; first compound 0.6325 µM): 0.754
relative viability ([1]; first compound 2 µM): 0.617
relative viability (Entinostat + Olaparib; first compound 0.02 µM): 0.877
relative viability (Entinostat + Olaparib; first compound 0.06325 µM): 0.816
relative viability (Entinostat + Olaparib; first compound 0.2 µM): 0.598
relative viability (Entinostat + Olaparib; first compound 0.6325 µM): 0.458
relative viability (Entinostat + Olaparib; first compound 2 µM): 0.377
relative viability (Entinostat + Navitoclax; first compound 0.02 µM): 1.05
relative viability (Entinostat + Navitoclax; first compound 0.06325 µM): 0.954
relative viability (Entinostat + Navitoclax; first compound 0.2 µM): 0.806
relative viability (Entinostat + Navitoclax; first compound 0.6325 µM): 0.451
relative viability (Entinostat + Navitoclax; first compound 2 µM): 0.332

NCI-H1792
relative viability (Entinostat + Phenformin; first compound 0.02 µM): 0.318
relative viability (Entinostat + Phenformin; first compound 0.06325 µM): 0.441
relative viability (Entinostat + Phenformin; first compound 0.2 µM): 0.315
relative viability (Entinostat + Phenformin; first compound 0.6325 µM): 0.101
relative viability (Entinostat + Phenformin; first compound 2 µM): 0.17
relative viability ([1]; first compound 0.02 µM): 0.451
relative viability ([1]; first compound 0.06325 µM): 0.477
relative viability ([1]; first compound 0.2 µM): 0.368
relative viability ([1]; first compound 0.6325 µM): 0.374
relative viability ([1]; first compound 2 µM): 0.231
relative viability (Entinostat + Olaparib; first compound 0.02 µM): 0.488
relative viability (Entinostat + Olaparib; first compound 0.06325 µM): 0.358
relative viability (Entinostat + Olaparib; first compound 0.2 µM): 0.483
relative viability (Entinostat + Olaparib; first compound 0.6325 µM): 0.133
relative viability (Entinostat + Olaparib; first compound 2 µM): 0.0504
relative viability (Entinostat + Navitoclax; first compound 0.02 µM): 0.729
relative viability (Entinostat + Navitoclax; first compound 0.06325 µM): 0.674
relative viability (Entinostat + Navitoclax; first compound 0.2 µM): 0.576
relative viability (Entinostat + Navitoclax; first compound 0.6325 µM): 0.535
relative viability (Entinostat + Navitoclax; first compound 2 µM): 0.222

NCI-H1793
relative viability (Entinostat + Phenformin; first compound 0.02 µM): 0.439
relative viability (Entinostat + Phenformin; first compound 0.06325 µM): 0.4
relative viability (Entinostat + Phenformin; first compound 0.2 µM): 0.368
relative viability (Entinostat + Phenformin; first compound 0.6325 µM): 0.302
relative viability (Entinostat + Phenformin; first compound 2 µM): 0.316
relative viability ([1]; first compound 0.02 µM): 0.55
relative viability ([1]; first compound 0.06325 µM): 0.371
relative viability ([1]; first compound 0.2 µM): 0.366
relative viability ([1]; first compound 0.6325 µM): 0.46
relative viability ([1]; first compound 2 µM): 0.355
relative viability (Entinostat + Olaparib; first compound 0.02 µM): 0.929
relative viability (Entinostat + Olaparib; first compound 0.06325 µM): 0.959
relative viability (Entinostat + Olaparib; first compound 0.2 µM): 0.743
relative viability (Entinostat + Olaparib; first compound 0.6325 µM): 0.681
relative viability (Entinostat + Olaparib; first compound 2 µM): 0.236
relative viability (Entinostat + Navitoclax; first compound 0.02 µM): 0.405
relative viability (Entinostat + Navitoclax; first compound 0.06325 µM): 0.599
relative viability (Entinostat + Navitoclax; first compound 0.2 µM): 0.405
relative viability (Entinostat + Navitoclax; first compound 0.6325 µM): 0.374
relative viability (Entinostat + Navitoclax; first compound 2 µM): 0.218

NCI-H1915
relative viability (Entinostat + Phenformin; first compound 0.02 µM): 0.375
relative viability (Entinostat + Phenformin; first compound 0.06325 µM): 0.346
relative viability (Entinostat + Phenformin; first compound 0.2 µM): 0.372
relative viability (Entinostat + Phenformin; first compound 0.6325 µM): 0.261
relative viability (Entinostat + Phenformin; first compound 2 µM): 0.256
relative viability ([1]; first compound 0.02 µM): 0.3
relative viability ([1]; first compound 0.06325 µM): 0.313
relative viability ([1]; first compound 0.2 µM): 0.298
relative viability ([1]; first compound 0.6325 µM): 0.218
relative viability ([1]; first compound 2 µM): 0.281
relative viability (Entinostat + Olaparib; first compound 0.02 µM): 0.244
relative viability (Entinostat + Olaparib; first compound 0.06325 µM): 0.274
relative viability (Entinostat + Olaparib; first compound 0.2 µM): 0.23
relative viability (Entinostat + Olaparib; first compound 0.6325 µM): 0.21
relative viability (Entinostat + Olaparib; first compound 2 µM): 0.144
relative viability (Entinostat + Navitoclax; first compound 0.02 µM): 0.809
relative viability (Entinostat + Navitoclax; first compound 0.06325 µM): 0.716
relative viability (Entinostat + Navitoclax; first compound 0.2 µM): 0.813
relative viability (Entinostat + Navitoclax; first compound 0.6325 µM): 0.613
relative viability (Entinostat + Navitoclax; first compound 2 µM): 0.283

NCI-H1944
relative viability (Entinostat + Phenformin; first compound 0.02 µM): 0.193
relative viability (Entinostat + Phenformin; first compound 0.06325 µM): 0.182
relative viability (Entinostat + Phenformin; first compound 0.2 µM): 0.168
relative viability (Entinostat + Phenformin; first compound 0.6325 µM): 0.13
relative viability (Entinostat + Phenformin; first compound 2 µM): 0.142
relative viability ([1]; first compound 0.02 µM): 0.378
relative viability ([1]; first compound 0.06325 µM): 0.453
relative viability ([1]; first compound 0.2 µM): 0.451
relative viability ([1]; first compound 0.6325 µM): 0.382
relative viability ([1]; first compound 2 µM): 0.377
relative viability (Entinostat + Olaparib; first compound 0.02 µM): 0.373
relative viability (Entinostat + Olaparib; first compound 0.06325 µM): 0.323
relative viability (Entinostat + Olaparib; first compound 0.2 µM): 0.216
relative viability (Entinostat + Olaparib; first compound 0.6325 µM): 0.177
relative viability (Entinostat + Olaparib; first compound 2 µM): 0.172
relative viability (Entinostat + Navitoclax; first compound 0.02 µM): 0.985
relative viability (Entinostat + Navitoclax; first compound 0.06325 µM): 0.998
relative viability (Entinostat + Navitoclax; first compound 0.2 µM): 0.938
relative viability (Entinostat + Navitoclax; first compound 0.6325 µM): 0.485
relative viability (Entinostat + Navitoclax; first compound 2 µM): 0.311

NCI-H1975
relative viability (Entinostat + Phenformin; first compound 0.02 µM): 0.376
relative viability (Entinostat + Phenformin; first compound 0.06325 µM): 0.348
relative viability (Entinostat + Phenformin; first compound 0.2 µM): 0.342
relative viability (Entinostat + Phenformin; first compound 0.6325 µM): 0.238
relative viability (Entinostat + Phenformin; first compound 2 µM): 0.19
relative viability ([1]; first compound 0.02 µM): 0.315
relative viability ([1]; first compound 0.06325 µM): 0.362
relative viability ([1]; first compound 0.2 µM): 0.307
relative viability ([1]; first compound 0.6325 µM): 0.348
relative viability ([1]; first compound 2 µM): 0.31
relative viability (Entinostat + Olaparib; first compound 0.02 µM): 0.73
relative viability (Entinostat + Olaparib; first compound 0.06325 µM): 0.637
relative viability (Entinostat + Olaparib; first compound 0.2 µM): 0.484
relative viability (Entinostat + Olaparib; first compound 0.6325 µM): 0.324
relative viability (Entinostat + Olaparib; first compound 2 µM): 0.211
relative viability (Entinostat + Navitoclax; first compound 0.02 µM): 0.906
relative viability (Entinostat + Navitoclax; first compound 0.06325 µM): 0.782
relative viability (Entinostat + Navitoclax; first compound 0.2 µM): 0.751
relative viability (Entinostat + Navitoclax; first compound 0.6325 µM): 0.289
relative viability (Entinostat + Navitoclax; first compound 2 µM): 0.188

— the supplement of paper PMC10307832
